According to patent US9302993B2, “8-hydroxy quinoline derivatives” (PRANA BIOTECHNOLOGY LIMITED, priority 2002, dated 2016):
In brackets after ≈: the same amount, converted by molar mass. Like-named read-outs stand apart in the source and are kept apart here.

Experiments:
Neuronal cortical cells = experiment: Assay for test compound cytoxicity, MTS (Assay 3(d)); format: cell-based, mouse; conditions: BL6J×129sv, mouse, 4 days
[1] = test system: Aβ in extract of tissue from post mortem human AD brain; experiment: Human brain amyloid solubilisation assay (Assay 9, BAS); format: biochemical; conditions: solubilising plaques relative to PBS
Procedure, shortened: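 Plaque-bearing post mortem AD cortex homogenised in ice-cold PBS pH 7.4 and spun 100,000×g, 30 min to separate PBS-soluble supernatant from insoluble pellet. Aβ in each fraction resolved on Tris-Tricine 10-20% gels, immunoblotted with W02 antibody and ECL, quantified by densitometry against synthetic Aβ40 standards (0.5, 1, 2 ng).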

[2] = Blood brain barrier penetration, brain perfusion (Assay 14); format: in vivo; conditions: rat brain perfusion, 50 μM, 1.5 minutes
Experimental: Assay 14. Blood Brain Barrier Penetration
A trace amount of ^14C-sucrose was added to each stock infusion solution (approx 0.01 μCi/mL) to act as Blood-Brain Barrier (BBB)-impermeable marker in order to assess the integrity of the BBB during each perfusion and to estimate the volume of the residual vascular space (RVS) in samples of brain tissue (ie: the volume of fluid remaining inside the lumen of blood vessels at the end of each perfusion).
The right common carotid artery was surgically exposed and cannulated for perfusion of the cerebral circulation. The right external carotid artery (which supplies tissues outside the skull) was then ligated distal to its bifurcation from the right common carotid artery so that all of the infusion solution would pass into the brain via the remaining right internal carotid artery. The heart was then exposed and transected immediately prior to the commencement of the infusion. […] The infusion cannula initially contained a 0.5 mL pre-wash of heparinised PBS (10 IU/ml) that acts to flush blood vessels and to prevent blood from clotting and blocking small vessels.
After 1.5 minutes, the infusion pump automatically stopped, the cannula was withdrawn from the carotid artery and a sample of the infusion solution (1-1.5 mL) was then collected from the tip of the infusion cannula. The brain was then dissected free and divided into 3 parts; the right hemisphere together with the right midbrain, the left hemisphere together with the left midbrain and the hindbrain (cerebellum, pons and brainstem). Only the right part of the brain was used for subsequent measurements because perfusion via the right internal carotid artery preferentially supplies the right hemisphere and right midbrain (the left hemisphere and hindbrain receive a variable collateral perfusion). The brain tissue samples from each animal were frozen at −30° C., homogenized and weighed aliquots analysed by LC-MS to give total brain concentration. The analysis was carried out using the Micromass Triple Quad instrument. The mobile phase consisted of an acetonitrile/water gradient (containing 0.05% Formic acid) and the column was a Phenomenex Luna CN.
Small aliquots from each brain tissue sample and the corresponding infusion solution were analysed by liquid scintillation counting to determine the level of ^14C-sucrose. The residual vascular space (RVS) in each brain tissue sample was calculated by dividing the measured concentration of sucrose in brain tissue (dpm/mg) by its concentration in the corresponding infusion solution (dpm/μL). This is the volume of fluid that remains inside blood vessels at the end of each perfusion. […]
A total of 5-6 brain perfusion experiments were performed for each of the test compounds and mean brain uptake ratios were calculated.

[3] = Turbidimetric solubility measurements (Assay 13); format: physicochemical; conditions: kinetic from dmso stock, 1% DMSO, nephelometry
Experimental: Turbidimetric Solubility Measurements
The solubility estimate was measured at both pH 2.0 and pH 6.5. This is within the pH range that can be anticipated along the proximal gastrointestinal tract in humans.
The compounds were dissolved in DMSO to appropriate concentrations and then spiked into either 0.01M HCl (approx. pH=2.0) or pH 6.5 isotonic phosphate buffer, the final DMSO concentration being 1%. Samples were then analysed via Nephelometry to determine a solubility range. [as per D. Bevan and R. S. Lloyd, Anal. Chem. 2000, 72, 1781-1787].

[4] = E Log D, chromatographic method (Assay 13); format: physicochemical; conditions: SUPELCOSIL LC-ABZ column with octanol saturated mobile phase, pH 7.4; read-out: E Log D7.4
Experimental: Effective Log D values were measured using a chromatographic method employing a SUPELCOSIL LC-ABZ column using an octanol saturated mobile phase at pH 7.4.

[5] = aqueous buffer, pH 6.5 isotonic phosphate buffer, read-out: Solubility pH 6.5
[6] = simulated gastric fluid, 0.01M HCl (approx. pH 2.0), read-out: Solubility (μg/mL) 0.01M HCl

| SMILES | Test Compound Cytoxicity 1 uM (Neuronal cortical cells) | Test Compound Cytoxicity 10 uM (Neuronal cortical cells) | BAS Score [1] | Uptake Ratio [2] [%] | solubility [3, 5] [µg/mL] | solubility [3, 6] [µg/mL] | chromatographic logD [4] |
| --- | --- | --- | --- | --- | --- | --- | --- |
| CCNCc1ccc2c(Cl)cc(Cl)c(O)c2n1.Cl [compound 1051, 5,7-dichloro-2-ethylaminomethyl-quinolin-8-ol hydrochloride] | 87 | 56 | + | >50 | < 3.1 | < 3.1 | 2.64 |
| CN(C)Cc1ccc2c(Cl)cc(Cl)c(O)c2n1.Cl [compound 1033, 5,7-Dichloro-2-dimethylaminomethyl-quinolin-8-ol hydrochloride] | 80 | 70 | + | >50 | 3.1 to 6.2 | < 3.1 | 1.32 |
| O=C(NCCc1c[nH]cn1)c1ccc2c(Cl)cc(Cl)c(O)c2n1 [compound 1038, 5,7-Dichloro-8-hydroxyquinoline-2-carboxylic acid [2-(1H-imidazol-4-yl)-ethyl]-amide] | 93 | 83 | + | >50 | 12.5 to 25 (≈ 35.6 to 71.2 µM) | 3.1 to 6.2 (≈ 8.83 to 17.7 µM) | 2.92 |
| Cn1cnc(CCNC(=O)c2ccc3c(Cl)cc(Cl)c(O)c3n2)c1 [compound 1050, 5,7-dichloro-8-hydroxyquinoline-2-carboxylic acid [2-(1-methyl-1H-imidazol-4-yl)-ethyl]-amide] | 93 | 88 |  | >50 | 12.5 to 25 (≈ 34.2 to 68.5 µM) | 25 to 50 (≈ 68.5 to 137 µM) | 2.98 |
